From US4329362A, “2-Amino-4-(substituted hydrazino)-6-oxo pyrimidines” (Burroughs Wellcome Co., priority 1977, dated 1982)
Counter-ions that a name gives are not always drawn.

Molecular target: dihydropteroic acid biosynthesis (DHPB): hydroxymethyldihydropteridine pyrophosphokinase and dihydropteroate synthetase
Assay: coupled assay of dihydropteroic acid biosynthesis (kinase + synthetase), 14C H2pteroate formation
Type: biochemical
Settings: coupled assay method; E. coli extract, 0-50% ammonium sulfate fraction; 14C in H2 pteroate from p-aminobenzoate-7-14C; read-out: Concentration in μM required to give 50% inhibition of DHPB
Source text: Potential inhibitors of DHPB synthesis may be tested by investigating the inhibitory effect they impose in the enzymes responsible for the biosynthesis of dihydropteroic acid (DPtA), namely hydroxymethyldihydropteridine pyrophosphokinase (HMPPS), and dihydropteroate synthetase, hereinafter referred to as `synthetase`. In the following reaction equations the compounds are referred to by their abbreviated forms defined hereinbefore in the specification. [formula]
This reaction requires two enzymes since the starting substrates are H2 ptCH2 OH, ATP, and pAB, and the products are H2 pteroate and AMP.
The reactions are followed by determining the amount of ^14 C in H2 pteroate after separation from the substrate, p-aminobenzoate-7-^14 C, by paper chromatography.

SMILES | IC50
Cn1nc(Cc2ccccc2[N+](=O)[O-])c(=O)c2c(O)nc(N)nc21 [7-amino-1-methyl-3-(2-nitrobenzyl)-4-oxo-5-hydroxy-1,4-dihydropyrimido(4,5-c)pyridazine] | 12 µM
COc1cc(CC(C#N)c2nn(C)c3nc(N)nc(O)c3c2=O)cc(OC)c1OC (stereo not drawn) [7-amino-1-methyl-3-(α-cyano-3,4,5-trimethoxyphenethyl)-4-oxo-5-hydroxy-1,4-dihydropyrimido(4,5-c)pyridazine] | 11 µM
CCc1nn(C)c2nc(N)[nH]c(=O)c2c1=O [C2 H5] | 33 µM
Cn1nc(-c2ccccc2)c(=O)c2c(O)nc(N)nc21 [C6 H5, 7-amino-1-methyl-3-phenyl-4-oxo-5-hydroxy-1,4-dihydropyrimido(4,5-c)pyridazine] | 15 µM
Cn1nc(Cc2ccccc2)c(=O)c2c(O)nc(N)nc21 [CH2 C6 H5, 7-amino-1-methyl-3-benzyl-4-oxo-5-hydroxy-1,4-dihydropyrimido(4,5-c)pyridazine] | 11 µM
CCOC(=O)CCc1nn(C)c2nc(N)[nH]c(=O)c2c1=O [CH2 CH2 CO2 C2 H5] | 16 µM
Cn1nc(CCC(=O)O)c(=O)c2c(=O)[nH]c(N)nc21 [CH2 CH2 CO2 H] | 5.5 µM
CCOC(=O)Cc1nn(C)c2nc(N)nc(O)c2c1=O [CH2 CO2 C2 H5, 7-amino-1-methyl-3-(ethoxycarbonylmethyl)-4-oxo-5-hydroxy-1,4-dihydropyrimido(4,5-c)pyridazine] | 6.2 µM
CC(=O)OCc1nn(C)c2nc(N)[nH]c(=O)c2c1=O [CH2 OCOCH3, 7-Amino-3-acetoxymethyl-1-mehylpyrimido(4,5-c)pyridazine-4,5(1H, 6H)-dione] | 15 µM
Cn1nc(CO)c(=O)c2c(=O)[nH]c(N)nc21 [CH2 OH, 7-Amino-3-hydroxymethyl-1-methylpyrimido(4,5-c)pyridazine-4,5(1H, 6H)-dione Sodium Salt] | 12 µM
Cc1nn(C)c2nc(N)[nH]c(=O)c2c1=O [CH3, 7-Amino-1,3-dimethylpyrimido(4,5-c)pyridazine-4,5-(1H, 6H)-dione] | 16 µM
CC(C(=O)O)c1nn(C)c2nc(N)[nH]c(=O)c2c1=O (stereo not shown) [CH(CH3)CO2 H, 7-Amino-3-(1-carboxyethyl)-1-methylpyrimido(4,5-c)pyridazine-4,5(1H, 6H)-dione Disodium Salt] | 3.7 µM
CCOC(=O)C(OC)c1nn(C)c2nc(N)[nH]c(=O)c2c1=O (stereo not shown) [CH(OCH3)CO2 C2 H5] | 17 µM
COC(C(=O)O)c1nn(C)c2nc(N)nc(O)c2c1=O (stereo not shown) [CH(OCH3)CO2 H, 7-amino-1-methyl-3-((1-methoxy)carboxymethyl)-4-oxo-5-hydroxy-1,4-dihydropyrimido(4,5-c)pyridazine] | 2.8 µM
Cn1nc(C(=O)O)c(=O)c2c(=O)[nH]c(N)nc21 [CO2 H (disodium salt), 7-Amino-3-carboxy-1-methylpyrimido(4,5-c)pyridazine-4,5(1H, 6H)-dione Disodium Salt] | 21 µM
Cn1nc(-c2c[nH]c3ccccc23)c(=O)c2c(=O)[nH]c(N)nc21 [Example 3-Indolyl] | 30 µM
CC(C)Cc1nn(C)c2nc(N)[nH]c(=O)c2c1=O [iso-C4 H9] | 20 µM
CCCc1nn(C)c2nc(N)[nH]c(=O)c2c1=O [n-C3 H7] | 45 µM
CCCCCCc1nn(C)c2nc(N)[nH]c(=O)c2c1=O [n-C6 H13] | 50 µM

These reach a lower IC50. Values come first.

IC50 | SMILES
2.7 µM | COc1cc(OC)c(C(=O)Cc2nn(C)c3nc(N)[nH]c(=O)c3c2=O)c(OC)c1 [7-Amino-3-(2,4,6-trimethoxyphenacyl)-1-methylpyrimido(4,5-c)pyridazine-4,5(1H, 6H)-dione]
1.6 µM | CCOC(=O)C(C)c1nn(C)c2nc(N)[nH]c(=O)c2c1=O (stereo not shown) [CH(CH3)CO2 C2 H5, 7-Amino-3-(1-ethoxycarbonylethyl)-1-methylpyrimido(4,5-c)pyridazine-4,5(1H,6H)-dione]
0.86 µM | COc1ccc(Cc2nn(C)c3nc(N)nc(O)c3c2=O)cc1OC [7-amino-3-(3,4-dimethoxybenzyl)-1-methyl-4-oxo-5-hydroxy-1,4-dihydropyrimido(4,5-c)pyridazine]
0.77 µM | COc1cc(Cc2nn(C)c3nc(N)nc(O)c3c2=O)cc(OC)c1OC [7-amino-3-(3,4,5-trimethoxybenzyl)-1-methyl-4-oxo-5-hydroxy-1,4-dihydropyrimido(4,5-c)pyridazine]
0.76 µM | Cn1nc(CC(=O)c2ccccc2)c(=O)c2c(=O)[nH]c(N)nc21 [CH2 COC6 H5, 7-Amino-3-phenacyl-1-methylpyrimido(4,5-c)pyridazine-4,5(1H, 6H)-dione]
0.22 µM | Cn1nc(CC(=O)c2cccc(O)c2)c(=O)c2c(=O)[nH]c(N)nc21 [7-Amino-3-(3-hydroxyphenacyl)-1-methylpyrimido(4,5-c)pyridazine-4,5(1H, 6H)-dione]
0.15 µM | COc1ccc(C(=O)Cc2nn(C)c3nc(N)[nH]c(=O)c3c2=O)cc1OC [7-Amino-3-(3,4-dimethoxyphenacyl)-1-methylpyrimido(4,5-c)pyridazine-4,5(1H,6H)-dione]
0.14 µM | COc1ccc(C(=O)Cc2nn(C)c3nc(N)[nH]c(=O)c3c2=O)c(OC)c1 [7-Amino-3-(2,4-dimethoxyphenacyl)-1-methylpyrimido(4,5-c)pyridazine-4,5(1H,6H)-dione]
0.06 µM | COc1ccc(OC)c(C(=O)Cc2nn(C)c3nc(N)[nH]c(=O)c3c2=O)c1 [7-Amino-3-(2,5-dimethoxyphenacyl)-1-methylpyrimido(4,5-c)pyridazine-4,5(1H,6H)-dione]
0.03 µM | COc1cc(C(=O)Cc2nn(C)c3nc(N)[nH]c(=O)c3c2=O)cc(OC)c1OC [7-Amino-3-(3,4,5-trimethoxyphenacyl)-1-methylpyrimido(4,5-c)pyridazine-4,5(1H, 6H)-dione]

Test system: not listed separately
Assay: pKa values
Type: physicochemical
Settings: read-out: pKa values (first value)

pKa | SMILES
4.1 ± 0.1 | Cc1nn(C)c2nc(N)[nH]c(=O)c2c1=O [CH3, 7-Amino-1,3-dimethylpyrimido(4,5-c)pyridazine-4,5-(1H, 6H)-dione]

Same assay, conditions: read-out: pKa values (second value)

pKa | SMILES
8.6 ± 0.1 | Cc1nn(C)c2nc(N)[nH]c(=O)c2c1=O [CH3, 7-Amino-1,3-dimethylpyrimido(4,5-c)pyridazine-4,5-(1H, 6H)-dione]
